The values below come from ChEMBL document CHEMBL4229545, “Oximes short-acting CB1 receptor agonists” (Bioorg Med Chem, 2018).

For orientation: EC50 means the concentration that produces a half-maximal response. As usually defined, the Ki is the dissociation constant of the complex between target and ligand, obtained from inhibition or displacement. For orientation: Emax means the size of the effect at its maximum, as opposed to the concentration needed.

Assay [1] concerns the target T1, Cannabinoid receptor 2 (Homo sapiens, UniProt P34972). In words: Agonist activity at recombinant human Cb2 receptor expressed in HEK293 cells assessed as inhibition of forskolin-stimulated cAMP levels. The class given is functional, cell-based. In general terms: Cyclic AMP is a second messenger, typically raised through Gs and lowered through Gi signalling.
The target in assay [2] is Cannabinoid receptor 2 (Mus musculus, UniProt P47936). Kind of assay: Displacement of [3H]CP-55,940 from recombinant mouse Cb2 receptor expressed in HEK293 cells. It is filed as cell-based. (In general: In a radioligand displacement assay an active substance lowers the binding of a labelled ligand.)
Cannabinoid receptor 2 (Mus musculus, UniProt P47936), sequence (P47936 whole entry): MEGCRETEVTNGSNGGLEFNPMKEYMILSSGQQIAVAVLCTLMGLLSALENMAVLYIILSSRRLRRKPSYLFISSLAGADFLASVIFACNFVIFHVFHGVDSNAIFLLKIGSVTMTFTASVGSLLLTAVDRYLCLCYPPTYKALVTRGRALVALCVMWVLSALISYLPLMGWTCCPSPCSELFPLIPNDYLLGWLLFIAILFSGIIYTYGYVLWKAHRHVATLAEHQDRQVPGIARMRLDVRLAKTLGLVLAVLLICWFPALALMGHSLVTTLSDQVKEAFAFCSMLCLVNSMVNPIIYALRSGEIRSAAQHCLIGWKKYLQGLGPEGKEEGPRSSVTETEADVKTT
In assay [3] the target is T1, Cannabinoid receptor 2. Kind of assay: Displacement of [3H]CP-55,940 from recombinant human Cb2 receptor expressed in HEK293 cells. It is filed as cell-based.
For assay [4], the target named is Cannabinoid receptor 1 (Rattus norvegicus) (UniProt P20272). In words: Agonist activity at recombinant rat Cb1 receptor expressed in HEK293 cells assessed as inhibition of forskolin-stimulated cAMP levels relative to control. The class given is functional, cell-based.
Cannabinoid receptor 1 (Rattus norvegicus), sequence (P20272 whole entry): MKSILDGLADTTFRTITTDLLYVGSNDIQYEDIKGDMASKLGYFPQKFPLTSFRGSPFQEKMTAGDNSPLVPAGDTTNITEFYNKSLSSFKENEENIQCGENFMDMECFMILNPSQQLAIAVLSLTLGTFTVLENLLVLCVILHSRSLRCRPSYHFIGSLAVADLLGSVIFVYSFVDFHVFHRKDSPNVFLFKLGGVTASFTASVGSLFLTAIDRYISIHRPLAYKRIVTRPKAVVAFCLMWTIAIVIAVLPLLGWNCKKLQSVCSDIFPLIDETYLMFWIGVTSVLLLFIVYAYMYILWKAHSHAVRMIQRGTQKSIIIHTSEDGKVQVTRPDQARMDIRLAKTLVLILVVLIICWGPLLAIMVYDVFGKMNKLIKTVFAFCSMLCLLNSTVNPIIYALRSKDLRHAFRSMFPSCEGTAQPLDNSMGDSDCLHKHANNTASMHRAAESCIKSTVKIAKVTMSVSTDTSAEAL
Assay [5] deals with T2, Cannabinoid receptor 1 (Rattus norvegicus, UniProt P20272). Kind of assay: Displacement of [3H]CP-55,940 from rat brain Cb1 receptor.
T2 sequence (P20272 whole entry): as above
Assay [6] addresses T1, Cannabinoid receptor 2. Kind of assay: Agonist activity at recombinant human Cb2 receptor expressed in HEK293 cells assessed as inhibition of forskolin-stimulated cAMP levels relative to CP-55940. The class given is functional, cell-based.
Assay [7] addresses T2, Cannabinoid receptor 1. In words: Agonist activity at recombinant rat Cb1 receptor expressed in HEK293 cells assessed as inhibition of forskolin-stimulated cAMP levels. It is filed as functional, cell-based.

T1 sequence (P34972 whole entry): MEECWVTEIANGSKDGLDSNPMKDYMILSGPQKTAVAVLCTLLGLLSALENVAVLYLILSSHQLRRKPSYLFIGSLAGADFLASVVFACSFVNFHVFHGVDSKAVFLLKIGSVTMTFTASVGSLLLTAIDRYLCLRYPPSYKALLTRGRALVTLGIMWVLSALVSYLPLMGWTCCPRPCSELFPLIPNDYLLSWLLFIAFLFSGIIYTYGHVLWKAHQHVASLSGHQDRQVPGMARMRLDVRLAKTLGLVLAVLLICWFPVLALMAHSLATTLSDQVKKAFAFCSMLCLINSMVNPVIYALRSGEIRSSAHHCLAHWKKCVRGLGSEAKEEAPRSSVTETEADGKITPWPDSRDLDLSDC

As to `CCCCO/N=C(\C)c1cc(O)c2c(c1)OC(C)(C)[C@H]1CC=C(C)C[C@H]21`, the EC50 in assay [1] (read-out: EC50) was 9.14 nM; in assay [7] (read-out: EC50), 0.58 nM. The Ki was 1.6 nM in assay [2], 16.9 nM in assay [3] and 3.4 nM in assay [5]. The Emax stood at 51% in assay [4] and 116% in assay [6].
Consider `CC1=CC[C@H]2[C@H](C1)c1c(O)cc(/C(C)=N\OCCCC#N)cc1OC2(C)C`, for which the EC50 in assay [1] (read-out: EC50) is 2 nM; in assay [7] (hek293) it was “Not Active”. Also, the Ki in assay [2] amounted to 0.1 nM; in assay [3], 0.4 nM; in assay [5], 0.3 nM. Also, the Emax in assay [6] was found to be 35%.
For `CC1=CC[C@H]2[C@H](C1)c1c(O)cc(/C(C)=N/OCCCCF)cc1OC2(C)C`, the EC50 result in assay [1] (hek293) was “Not Active”; in assay [7] (read-out: EC50), 0.7 nM. Also, the Ki came to 2.5 nM in assay [2], 9.7 nM in assay [3] and 4.1 nM in assay [5]. In addition, the Emax in assay [4] is 39%.
In the case of `CCCC(C)O/N=C(/C)c1cc(O)c2c(c1)OC(C)(C)[C@H]1CC=C(C)C[C@H]21` (mixture of isomers), the EC50 in assay [1] (read-out: EC50) is 11.5 nM; in assay [7] (hek293) it was “Not Active”. Besides, the Ki came to 1.9 nM in assay [2], 6.1 nM in assay [3] and 0.5 nM in assay [5]. Further, the maximal effect (Emax) in assay [6] is 260%.
For `CC1=CC[C@H]2[C@H](C1)c1c(O)cc(/C(C)=N/OCCCC(F)(F)F)cc1OC2(C)C`, the 50% effective concentration (EC50) worked out at 1 nM in assay [1] (read-out: EC50) and 0.4 nM in assay [7] (read-out: EC50). In addition, the Ki in assay [2] came to 0.5 nM; in assay [3], 3 nM; in assay [5], 0.3 nM. Moreover, the Emax was 69% in assay [4] and 43% in assay [6].
Take `CCCC(C)O/N=C(\C)c1cc(O)c2c(c1)OC(C)(C)[C@H]1CC=C(C)C[C@H]21` (mixture of isomers): the EC50 in assay [1] (read-out: EC50) came to 41.3 nM; in assay [7] (read-out: EC50), 22.4 nM. In addition, the Ki in assay [2] came out at 43.6 nM; in assay [3] it was 24 nM; in assay [5] it was 2 nM. Besides, the Emax in assay [4] worked out at 48%; in assay [6] it was 411%.
As for `CC1=CC[C@H]2[C@H](C1)c1c(O)cc(/C(C)=N\OCCCc3ccccc3)cc1OC2(C)C`, the EC50 is 1.7 nM in assay [1] (read-out: EC50) and “Not Active” in assay [7] (hek293). The figures for the Ki in assay [2], in assay [3] and in assay [5] were 2.8 nM, 2.9 nM and 5 nM, respectively. Further, the Emax in assay [6] came to 98%.
For `CC1=CC[C@H]2[C@H](C1)c1c(O)cc(/C(C)=N/OCCN3CCOCC3)cc1OC2(C)C`, the results for the Ki in assay [2], in assay [3] and in assay [5] were 1.8 nM, 0.7 nM and 7 nM, respectively.
Take `CC1=CC[C@H]2[C@H](C1)c1c(O)cc(/C(C)=N/OCCN3CCCC3)cc1OC2(C)C`: the Ki in assay [2] stood at 6.7 nM; in assay [3], 8.4 nM; in assay [5] it was 6.6 nM.
